Measured values: patent US20230020036A1, “TREATMENT OF EPILEPTIC CONDITIONS WITH GABAA RECEPTOR MODULATORS” (NEUROCYCLE THERAPEUTICS, INC., priority 2019, published 2023)
Values joined by “and” are separate entries in the source; they are usually repeats but may differ in a detail not shown here. Equal values may be shown once. “Also recorded” adds a separate entry of the source.

System: Scn1a+/- heterozygous knockout mice ([129xB]F1.Scn1a+/-), heat-induced seizures
Experiment: Hyperthermia-induced seizure study in Scn1a+/- heterozygous knockout mice
Format: in vivo, mouse
Set-up: Temp Change: unit not given here
Details: for amount of seizures relative to administration of vehicle: Table 10 summary; for performance compared with the clobazam positive control: clobazam 10 mg/kg; for efficacy at preventing heat-induced seizures: summary of the seizure study, FIG. 13
Excerpt: Reason for selection of species: The Scn1a^+/− knockout mouse ([129xB]F1. Scn1a^+/−) is a model subject of DS with a high translational value.
Between P14 and 16, Scn1a^+/− heterozygous knockout mice are randomly assigned to treatment groups (n=7 males, 7 females/treatment group). The Scn1a^+/− knockout mouse model was chosen because it is an art accepted animal model for epileptic conditions, including for Dravet Syndrome. Treatments are GABAA receptor modulator 1 (“Compound 1” as a phosphate salt at 0.1, 0.3, 1.0 mg/kg), GABAA receptor modulator 2 (“Compound 2” at 3, 10, 30, 100 mg/kg), vehicle, or Clobazam (“CBZ”) (10 mg/kg; positive control).
The GABAA receptor modulators were administered intraperitoneally (i.p.) using a 0.5 or 1-ml plastic syringe fitted with a 27 or 30 gauge 0.5″-long beveled needle.
Animals received 10 mL of formulation per kg of body weight as measured on the day of experiment.
In order to verify the dose concentration, mice were dosed with a test article or control and placed into individual housing cages. A temperature probe was gently inserted into the mouse's rectum and secured by taping the probe's wire to the mouse's tail with the tag end on the mouse's dorsal side. For each group, the insertion of the probe was as follows: • a. For mice administered CBZ, five (5) mins passed before insertion of the probe in order to allow 20-30 min pretreatment time when the state of hyperthermia reached. • b. For mice administered Compound 1, thirty-five (35) mins passed before insertion of the probe in order to allow 50-60 min pretreatment time when the state of hyperthermia is reached. • c. For mice administered […], five (5) mins passed before insertion of the probe in order to allow 20-30 min pretreatment time when the state of hyperthermia reached.
Each mouse was allowed to acclimate to the temperature probe for five (5) minutes before recording the baseline temperature. FIGS. 1-3 depict the starting temperatures of the female mice, the male mice, and the average starting temperatures of all mice prior to inducing the heat-induced seizures.
FIGS. 4-6 depict the final core body temperature of the female mice, the male mice, and the average final core body temperature of all mice after heating. FIGS. 7-9 illustrate the total temperature change for the female mice, the male mice, and average of all mice; while FIGS. 10-12 depict the average temperature change per minute for the female mice, the male mice, and average of all mice. The mouse's body temperature was maintained at 42.5° C. for 3 mins. If no seizure occurred, the mouse was considered seizure-free.

[1] = 0.1 mg/kg i.p., 60 minute pretreatment, individual animals, female mice
[2] = 0.1 mg/kg i.p., 60 minute pretreatment, individual animals, male mice
[3] = 0.3 mg/kg i.p., 60 minute pretreatment, individual animals, female mice
[4] = 0.3 mg/kg i.p., 60 minute pretreatment, individual animals, male mice
[5] = Clobazam 10 mg/kg i.p., 30 minute pretreatment, individual animals, female mice
[6] = Clobazam 10 mg/kg i.p., 30 minute pretreatment, individual animals, male mice
[7] = 3 mg/kg i.p., 30 minute pretreatment, individual animals, female mice
[8] = 3 mg/kg i.p., 30 minute pretreatment, individual animals, male mice
[9] = Compound 2 30 mg/kg, 30 minute pretreatment, individual animals, female mice
[10] = Compound 2 30 mg/kg, 30 minute pretreatment, individual animals, male mice
[11] = Compound 2 100 mg/kg, 30 minute pretreatment, individual animals, female mice
[12] = Compound 2 100 mg/kg, 30 minute pretreatment, individual animals, male mice

CC(C)(O)c1cnn2c(-c3ccc(F)c(-c4c(F)cccc4C#N)c3)cnc2n1 [Compound 1]
Total With No Seizure (0.1 mg/kg i.p., 60 minute pretreatment): 6%
End Temp [1]: 41.9 °C and 41.8 °C and 41.6 °C and 42 °C and 41.7 °C and 42.8 °C and 41.4 °C and 41.2 °C
Observations [1]: Tonic-clonic, squeek; also recorded: Seizure free, 3 min hold
End Temp [2]: 42.6 °C and 41.8 °C and 40.8 °C and 42 °C and 42.1 °C and 41.5 °C and 42.2 °C and 41.6 °C
Observations [2]: Tonic-clonic, seizure; also recorded: Tonic-clonic, squeek
Total With No Seizure (0.3 mg/kg i.p., 60 minute pretreatment): 33%
End Temp [3]: 41.7 °C and 41.4 °C and 42.3 °C (2×) and 42.5 °C and 42.8 °C and 42.1 °C and 42.2 °C and 42.7 °C
Observations [3]: Tobic-clonic, squeek, HLE; also recorded: Seizure free, 3 min hold; also recorded: tonic-clonic, squeek, HLE
End Temp [4]: 41.4 °C and 42.4 °C (2×) and 42.8 °C and 41.9 °C and 42.2 °C and 42.6 °C (2×) and 43 °C
Observations [4]: Tonic,-clonic, squeek; also recorded: Tonic-clonic, squeek; also recorded: Seizure free, 3 min hold
Total With No Seizure (1.0 mg/kg i.p., 60 minute pretreatment): 36%
Observations (1.0 mg/kg i.p., 60 minute pretreatment, individual animals): Tonic-clonic seizure,; also recorded: seizure free, 3 min hold; also recorded: Tonic-clonic seizure; also recorded: Tonic-clonic, Squeek
End Temp (1.0 mg/kg i.p., 60 minute pretreatment, individual animals, female mice): 42.2 °C (2×) and 42.8 °C (2×) and 42.4 °C and 42.5 °C (3×) and 42.3 °C and 42.9 °C and 42.1 °C
End Temp (1.0 mg/kg i.p., 60 minute pretreatment, individual animals, male mice): 41.9 °C and 42.5 °C (2×) and 42.9 °C and 42.3 °C and 42.2 °C and 42.8 °C (2×) and 41.5 °C and 41.3 °C and 42.6 °C
amount of seizures relative to administration of vehicle: reduced the amount of seizures
performance compared with the clobazam positive control: performed at least as well as the clobazam positive control
efficacy at preventing heat-induced seizures: effective at preventing heat-induced seizures
End Temperature (summary, 0.1 mg/kg (n = 16)): 41.81 °C
Seizure free % (summary, 0.1 mg/kg (n = 16)): 6%
Temp Change (summary, 0.1 mg/kg (n = 16)): 6.66
Temp Change/min (summary, 0.1 mg/kg (n = 16)): 0.52
End Temperature (summary, 0.3 mg/kg (n = 18)): 42.29 °C
Seizure free % (summary, 0.3 mg/kg (n = 18)): 33%
Temp Change (summary, 0.3 mg/kg (n = 18)): 7.15
Temp Change/min (summary, 0.3 mg/kg (n = 18)): 0.48
End Temperature (summary, 1.0 mg/kg (n = 22)): 42.39 °C
Seizure free % (summary, 1.0 mg/kg (n = 22)): 36%
Temp Change (summary, 1.0 mg/kg (n = 22)): 7.05
Temp Change/min (summary, 1.0 mg/kg (n = 22)): 0.46

CN1C(=O)CC(=O)N(c2ccccc2)c2cc(Cl)ccc21 [Clobazam, reference compound]
Total With No Seizure (Clobazam 10 mg/kg i.p., 30 minute pretreatment): 38%
End Temp [5]: 42.3 °C and 42 °C and 42.2 °C and 42.7 °C (2×) and 42.6 °C (4×) and 42.5 °C (2×) and 42.9 °C
Observations [5]: Tonic-clonic, squeek; also recorded: seizure free, 3 min hold; also recorded: Tonic-clonic on the onset; also recorded: Tonic-clonic, HLE
End Temp [6]: 41.9 °C and 42.6 °C (2×) and 42.5 °C (3×) and 42.9 °C and 42.8 °C and 41.8 °C and 42 °C and 41.7 °C and 42.1 °C
Observations [6]: seizure free, 3 min hold; also recorded: Tonic-clonic seizure; also recorded: Tonic-clonic seizure,; also recorded: Tonic-clonic, squeek; also recorded: Tonic-clonic on the onset
End Temperature (summary, 10 mg/kg (n = 24)): 42.42 °C
Seizure free % (summary, 10 mg/kg (n = 24)): 38%
Temp Change (summary, 10 mg/kg (n = 24)): 7.60
Temp Change/min (summary, 10 mg/kg (n = 24)): 0.53

C#Cc1ccc2c(c1)C(c1ccccn1)=NCc1c(-c3nc(CC)no3)ncn1-2 [Compound 2]
Total With No Seizure (3 mg/kg i.p., 30 minute pretreatment): 7%
End Temp [7]: 42.6 °C and 41.8 °C and 41.7 °C (2×) and 42.2 °C and 42.4 °C and 41.4 °C
Observations [7]: Seizure free, 3 min hold; also recorded: Tonic-clonic, squeek
End Temp [8]: 41.3 °C (2×) and 41.7 °C and 42.1 °C and 41.8 °C and 42 °C and 42.5 °C
Observations [8]: Tonic-clonic, squeek; also recorded: Tonic-clonic on the onset
prevention of seizures (100 mg/kg dose, n=8): completely preventing seizures in each animal
dose dependence of seizure prevention (3, 10, 30, 100 mg/kg): prevented seizures in a dose-dependent fashion
Total With No Seizure (Compound 2 10 mg/kg i.p., 30 minute pretreatment): 50%
Observations (Compound 2 10 mg/kg i.p., 30 minute pretreatment, individual animals): Tonic-clonic, squeek
End Temp (Compound 2 10 mg/kg i.p., 30 minute pretreatment, individual animals, female mice): 42.7 °C (2×) and 42.8 °C (2×) and 42.6 °C and 42.1 °C and 42.5 °C
End Temp (Compound 2 10 mg/kg i.p., 30 minute pretreatment, individual animals, male mice): 42.5 °C (3×) and 42.8 °C and 42 °C and 40 °C and 42.7 °C
Total With No Seizure (Compound 2 30 mg/kg, 30 minute pretreatment): 73%
End Temp [9]: 42.5 °C and 41.5 °C and 42.8 °C (2×) and 42.7 °C (3×) and 42.6 °C
Observations [9]: seizure free, 3 min hold; also recorded: Tonic-clonic seizure
Temp Change [9]: 9.1 and 5.3 and 6.3 and 6.2 and 7.9 and 7.2 and 6.6 and 7.4
Temp Change/min [9]: 0.51 and 0.48 (2×) and 0.41 and 0.46 and 0.55 and 0.39 and 0.35
End Temp [10]: 42.5 °C and 42.8 °C and 42.6 °C and 43 °C and 42.7 °C (2×) and 41.6 °C
Observations [10]: Tonic-clonic, squeek; also recorded: Seizure free, 3 min hold
Temp Change [10]: 7.3 and 6.8 and 7.8 and 7.5 (2×) and 9.6 and 7
Temp Change/min [10]: 0.66 and 0.49 and 0.41 and 0.54 and 0.53 and 0.50 and 0.63
Total With No Seizure (Compound 2 100 mg/kg, 30 minute pretreatment): 100%
End Temp [11]: 42.9 °C and 42.7 °C (2×) and 42.5 °C
Observations [11]: Seizure free, 3 min hold
Temp Change [11]: 8.2 and 7.4 and 7.7 and 8.5
Temp Change/min [11]: 0.59 and 0.53 and 0.33 and 0.50
End Temp [12]: 42.6 °C (2×) and 42.7 °C and 42.5 °C
Observations [12]: Seizure free, 3 min hold
Temp Change [12]: 7.4 and 7.2 and 9.7 and 7.7
Temp Change/min [12]: 0.31 and 0.36 and 0.54 and 0.29
amount of seizures relative to administration of vehicle: reduced the amount of seizures
performance compared with the clobazam positive control: performed at least as well as the clobazam positive control
efficacy at preventing heat-induced seizures: effective at preventing heat-induced seizures
End Temperature (summary, 3 mg/kg (n = 14)): 41.89 °C
Seizure free % (summary, 3 mg/kg (n = 14)): 7%
Temp Change (summary, 3 mg/kg (n = 14)): 6.61
Temp Change/min (summary, 3 mg/kg (n = 14)): 0.45
End Temperature (summary, 10 mg/kg (n = 14)): 42.37 °C
Seizure free % (summary, 10 mg/kg (n = 14)): 50%
Temp Change (summary, 10 mg/kg (n = 14)): 7.09
Temp Change/min (summary, 10 mg/kg (n = 14)): 0.47
End Temperature (summary, 30 mg/kg (n = 15)): 42.55 °C
Seizure free % (summary, 30 mg/kg (n = 15)): 73%
Temp Change (summary, 30 mg/kg (n = 15)): 7.30
Temp Change/min (summary, 30 mg/kg (n = 15)): 0.49
End Temperature (summary, 100 mg/kg (n = 8)): 42.60 °C
Seizure free % (summary, 100 mg/kg (n = 8)): 100%
Temp Change (summary, 100 mg/kg (n = 8)): 8.00
Temp Change/min (summary, 100 mg/kg (n = 8)): 0.37
